Assay results reported in patent US20250145642A1, “BICYCLIC HETEROARENES AND METHODS OF THEIR USE” (Kineta, Inc., priority 2021, published 2025).

tested on: FAB1 TDP-43 yeast strain; experiment: Propidium iodide viability assay, FAB1 TDP-43 yeast strain; assay type: cell-based; conditions: FAB1 TDP-43 yeast model
Excerpt: (§1) Generation of TDP-43 yeast model expressing human PIKfyve. Human PIKFYVE (“entry clone”) was cloned into pAG416GPDccdB (“destination vector”) according to standard Gateway cloning protocols (Invitrogen, Life Technologies). The resulting pAG416GPD-PIKFYVE plasmids were amplified in E. coli and plasmid identity confirmed by restriction digest and Sanger sequencing. Lithium acetate/polyethylene glycol-based transformation was used to introduce the above PIKFYVE plasmid into a BY4741 yeast strain auxotrophic for the ura3 gene and deleted for two transcription factors that regulate the xenobiotic efflux pumps, a major efflux pump, and FAB1, the yeast ortholog of PIKFYVE (MATa, snq2::KILeu2; pdr3::KIura3;pdr1::NATMX; fab1::G418^R, his 3;leu2;ura3;met15;LYS2+) (FIG. 2). Transformed yeast were plated on solid agar plates with complete synthetic media lacking uracil (CSM-ura) and containing 2% glucose. Individual colonies harboring the control or PIKFYVE TDP-43 plasmids were recovered. A plasmid containing wild-type TDP-43 under the transcriptional control of the GAL1 promoter and containing the hygromycin-resistance gene as a selectable marker was transformed into the fab1::G418^R pAG416GPD-PIKFYVE yeast strain (FIG. 1). Transformed yeast were plated on CSM-ura containing 2% glucose and […] G418 after overnight recovery in media lacking antibiotic. Multiple independent isolates were further evaluated for cytotoxicity and TDP-43 expression levels.
(§2) Viability Assay. A control yeast strain with the wild-type yeast FAB1 gene and TDP-43 (“FAB1 TDP-43”, carries empty pAG416 plasmid), and the “PIKFYVE TDP-43” yeast strain, were assessed for toxicity using a propidium iodide viability assay. Both yeast strains were transferred from solid CSM-ura/2% glucose agar plates into 3 mL of liquid CSM-ura/2% glucose media for 6-8 hours at 30° C. with aeration. Yeast cultures were then diluted to an optical density at 600 nm wavelength (OD600) of 0.005 in 3 mL of CSM-ura/2% raffinose and grown overnight at 30° C. with aeration to an OD600 of 0.3-0.8. Log-phase overnight cultures were diluted to OD600 of 0.005 in CSM-ura containing either 2% raffinose or galactose and 150 μL dispensed into each well of a flat bottom 96-well plates. Compounds formulated in 100% dimethyl sulfoxide (DMSO) were serially diluted in DMSO and 1.5 μL diluted compound transferred to the 96-well plates using a multichannel pipet. Wells containing DMSO alone were also evaluated as controls for compound effects. Tested concentrations ranged from 15 μM to 0.11 μM. Cultures were immediately mixed to ensure compound distribution and covered plates incubated at 30° C. for 24 hours in a stationary, humified incubator.
(§3) Upon the completion of incubation, cultures were assayed for viability using propidium iodide (PI) to stain for dead/dying cells. A working solution of PI was made where, for each plate, 1 μL of 10 mM PI was added to 10 mL of CSM-ura (raffinose or galactose). The final PI solution (50 μL/well) was dispensed into each well of a new round bottom 96-well plate. The overnight 96-well assay plate was then mixed with a multichannel pipet and 50 μL transferred to the PI-containing plate. This plate was then incubated for 30 minutes at 30° C. in the dark. A benchtop flow cytometer (Miltenyi MACSquant) was then used to assess red fluorescence (B2 channel), forward scatter, and side scatter (with following settings: gentle mix, high flow rate, fast measurement, 10,000 events). Intensity histograms were then gated for “PI-positive” or “PI-negative” using the raffinose and galactose cultures treated with DMSO as controls. The DMSO controls for raffinose or galactose-containing cultures were used to determine the window of increased cell death and this difference set to 100. All compounds were similarly gated and then compared to this maximal window to establish the percent reduction in PI-positive cells.

For `Cc1cccc(/C=N/Nc2cc(N3CC4CC3CO4)n3nc(-c4ccncc4)cc3n2)c1` (centres unmarked), the “FAB1 TDP-43 (active/inactive)” value was “Inactive”.
`N#Cc1cc(N2CCOCC2)n2nc(-c3ccncc3)cc2n1` was tested, and the “FAB1 TDP-43 (active/inactive)” value was “Inactive”.
For `Cn1c(-c2ccncc2)nc2c(N3CCOCC3)ncnc21`, the “FAB1 TDP-43 (active/inactive)” value was “Inactive”.

same assay, conditions: across a range of compound concentrations (only 0.23 μM is shown), FIG. 5

For `Cc1cccc(/C=N/Nc2cc(N3CCOCC3)n3nc(-c4ccncc4)cc3n2)c1` [APY0201, reference compound], the “viable cells in FAB1 TDP-43 (propidium iodide)” value was “no increase in viable cells”.

molecular target: full-length human PIKFYVE (N-terminal GST-fusion) (Homo sapiens (Human), UniProt Q9Y2I7, L932S/Q1183K/Q995L/S1033A/S696N/T998S); experiment: PIKfyve biochemical assay (ADP-Glo Kinase assay, Carna Biosciences); conditions: ADP-Glo, full-length human GST-PIKFYVE, 10 μM to 3 nM; read-out: hPIKfyve IC50
Sequence (Q9Y2I7 whole entry S696N/L932S/Q995L/T998S/S1033A/Q1183K, the tested form may be a part): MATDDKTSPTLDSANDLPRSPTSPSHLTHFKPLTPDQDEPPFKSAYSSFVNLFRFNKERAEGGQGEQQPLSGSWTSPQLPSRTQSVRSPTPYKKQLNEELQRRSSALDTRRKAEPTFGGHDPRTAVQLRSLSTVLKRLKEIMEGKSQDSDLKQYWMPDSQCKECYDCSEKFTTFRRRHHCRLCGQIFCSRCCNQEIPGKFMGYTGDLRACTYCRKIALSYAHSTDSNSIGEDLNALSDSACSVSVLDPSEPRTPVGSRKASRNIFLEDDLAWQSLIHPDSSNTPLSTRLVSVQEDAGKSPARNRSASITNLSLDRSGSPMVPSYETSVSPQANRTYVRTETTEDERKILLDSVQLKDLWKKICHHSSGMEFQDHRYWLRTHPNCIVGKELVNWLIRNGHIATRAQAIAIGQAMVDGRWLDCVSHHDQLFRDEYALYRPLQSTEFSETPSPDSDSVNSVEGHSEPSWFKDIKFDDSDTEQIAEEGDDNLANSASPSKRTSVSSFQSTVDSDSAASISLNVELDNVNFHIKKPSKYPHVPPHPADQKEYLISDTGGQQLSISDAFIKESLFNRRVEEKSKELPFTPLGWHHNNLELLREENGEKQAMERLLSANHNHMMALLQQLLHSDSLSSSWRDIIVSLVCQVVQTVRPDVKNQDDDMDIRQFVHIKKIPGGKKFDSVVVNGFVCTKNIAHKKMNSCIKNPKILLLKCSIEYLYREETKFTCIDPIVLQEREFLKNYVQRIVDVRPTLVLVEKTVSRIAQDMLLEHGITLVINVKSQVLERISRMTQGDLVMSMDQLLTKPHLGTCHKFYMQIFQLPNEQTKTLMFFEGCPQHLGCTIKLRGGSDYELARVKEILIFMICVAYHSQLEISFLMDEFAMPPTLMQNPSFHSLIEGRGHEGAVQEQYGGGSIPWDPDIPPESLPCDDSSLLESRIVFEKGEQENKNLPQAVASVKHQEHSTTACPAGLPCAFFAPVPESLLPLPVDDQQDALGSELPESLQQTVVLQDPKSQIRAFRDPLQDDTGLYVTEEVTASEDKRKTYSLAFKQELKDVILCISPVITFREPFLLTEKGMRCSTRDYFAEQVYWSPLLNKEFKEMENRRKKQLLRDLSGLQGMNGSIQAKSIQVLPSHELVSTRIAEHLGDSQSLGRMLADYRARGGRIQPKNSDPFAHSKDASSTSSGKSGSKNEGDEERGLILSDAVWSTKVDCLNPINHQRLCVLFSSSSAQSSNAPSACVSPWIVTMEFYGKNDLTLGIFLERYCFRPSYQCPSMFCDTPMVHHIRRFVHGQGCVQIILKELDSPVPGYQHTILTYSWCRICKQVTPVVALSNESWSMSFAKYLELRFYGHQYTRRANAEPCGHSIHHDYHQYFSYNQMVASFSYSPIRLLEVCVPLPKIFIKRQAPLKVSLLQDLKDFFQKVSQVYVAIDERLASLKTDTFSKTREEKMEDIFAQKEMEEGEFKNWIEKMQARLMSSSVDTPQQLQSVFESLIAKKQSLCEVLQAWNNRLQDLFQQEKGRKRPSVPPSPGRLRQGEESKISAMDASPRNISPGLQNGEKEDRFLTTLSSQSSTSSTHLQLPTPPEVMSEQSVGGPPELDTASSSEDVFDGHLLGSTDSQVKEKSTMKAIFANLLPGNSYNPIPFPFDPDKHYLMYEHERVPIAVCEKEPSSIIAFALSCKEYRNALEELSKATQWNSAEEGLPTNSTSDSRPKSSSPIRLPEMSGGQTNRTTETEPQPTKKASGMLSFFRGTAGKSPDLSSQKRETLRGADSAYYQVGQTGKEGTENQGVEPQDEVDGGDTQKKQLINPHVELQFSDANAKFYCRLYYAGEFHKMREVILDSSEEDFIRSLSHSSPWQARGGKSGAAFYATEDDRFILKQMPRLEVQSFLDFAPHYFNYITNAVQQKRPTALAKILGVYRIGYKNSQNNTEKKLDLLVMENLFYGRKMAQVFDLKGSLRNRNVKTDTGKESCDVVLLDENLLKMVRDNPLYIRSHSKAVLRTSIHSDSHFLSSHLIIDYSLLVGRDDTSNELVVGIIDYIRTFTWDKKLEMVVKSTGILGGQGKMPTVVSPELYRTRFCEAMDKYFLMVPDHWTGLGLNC
Procedure, shortened: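 Baculovirus-expressed, glutathione-purified GST-tagged full-length human PIKFYVE (S696N/L932S/Q995L/T998S/S1033A/Q1183K) reacted with substrate and ATP in 50 mM MOPS, 1 mM DTT, pH 7.2, 1 h at room temperature. ADP formed read by ADP-Glo luminescence.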

Compared with `c1cncc(N2CCc3c(-c4ccoc4)nc(N4CCOCC4)nc32)c1` [Compound 88, 4-(4-(furan-3-yl)-7-(pyridin-3-yl)-6,7-dihydro-6H-pyrrolo[2,3-d]pyrimidin-2-yl)morpholine], `O=c1ccccn1-c1nc(N2CCOCC2)nc2c1CCN2c1cccnc1` [Compound 52, 1-(2-morpholino-7-(pyridin-3-yl)-6,7-dihydro-5H-pyrrolo[2,3-d]pyrimidin-4-yl)pyridin-2(1H)-one] is higher in IC50: 0.01 to 0.1 µM for the first, 1 to 10 µM for the second. The first is the more potent here.

First: c1cncc(N2CCc3c(N4Cc5ccccc5C4)nc(N4CCOCC4)nc32)c1 [Compound 80, 4-(4-(isoindolin-2-yl)-7-(pyridin-3-yl)-6,7-dihydro-5H-pyrrolo[2,3-d]pyrimidin-2-yl)morpholine]
Second: c1ccc(Oc2nc(N3CCOCC3)nc3c2CCN3c2cccnc2)nc1 [Compound 51, 4-(4-(pyridin-2-yloxy)-7-(pyridin-3-yl)-6,7-dihydro-5H-pyrrolo[2,3-d]pyrimidin-2-yl)morpholine]
The IC50 of the first is lower: 0.01 to 0.1 µM for the first, 0.1 to 1 µM for the second. The first is the more potent here.

First: CN1CCCC(COc2nc(N3CCOCC3)nc3c2CCN3CC(C)(C)O)C1 (centres unmarked) [Compound 40, 2-methyl-1-(4-((1-methylpiperidin-3-yl)methoxy)-2-morpholino-6H-pyrrolo[2,3-d]pyrimidin-7(6H)-yl)propan-2-ol]
Second: CN1CCCC(COc2nc(N3CCOCC3)nc3c2CCN3c2cncnc2)C1 (centres unmarked) [Compound 16, 4-(4-((1-methylpiperidin-3-yl)methoxy)-7-(pyrimidin-5-yl)-6,7-dihydro-5H-pyrrolo[2,3-d]pyrimidin-2-yl)morpholine]
The IC50 of the first is higher: over 10 µM for the first, 1 to 10 µM for the second.

`c1ccc(-n2cc(N3CCc4c(Oc5cccnc5)nc(N5CCOCC5)nc43)cn2)cc1` [Compound 71, 4-(7-(1-phenyl-1H-pyrazol-4-yl)-4-(pyridin-3-yloxy)-6,7-dihydro-5H-pyrrolo[2,3-d]pyrimidin-2-yl)morpholine] and `c1ccc(-c2cncc(N3CCc4c(Oc5cccnc5)nc(N5CCOCC5)nc43)c2)cc1` [Compound 67, 4-(7-(5-phenylpyridin-3-yl)-4-(pyridin-3-yloxy)-6,7-dihydro-5H-pyrrolo[2,3-d]pyrimidin-2-yl)morpholine] fall in the same range of IC50: 0.01 to 0.1 µM for the first, 0.01 to 0.1 µM for the second.

First: CN1CC(c2nc(N3CCOCC3)nc3c2CCN3c2ccccc2)C1 [Compound 117, 4-(4-(1-methylazetidin-3-yl)-7-phenyl-6,7-dihydro-5H-pyrrolo[2,3-d]pyrimidin-2-yl)morpholine]
Second: CC(=O)N1CCC(c2nc(N3CCOCC3)nc3c2CCN3c2ccccc2)CC1 [Compound 120, 1-(4-(2-morpholino-7-phenyl-6,7-dihydro-5H-pyrrolo[2,3-d]pyrimidin-4-yl)piperidin-1-yl)ethan-1-one]
The IC50 of the first is higher: 0.1 to 1 µM for the first, 0.01 to 0.1 µM for the second.

`c1ccc(-c2c[nH]c3c(-c4ccncc4)nc(N4CCOCC4)nc23)nc1` [Compound 136, 4-(7-(pyridin-2-yl)-4-(pyridin-4-yl)-6H-pyrrolo[3,2-d]pyrimidin-2-yl)morpholine] and `c1ccc(-c2nccc(-c3nc(N4CCOCC4)nc4c3CCN4c3ccncc3)n2)cc1` [Compound 125, 4-(4-(2-phenylpyrimidin-4-yl)-7-(pyridin-4-yl)-6,7-dihydro-5H-pyrrolo[2,3-d]pyrimidin-2-yl)morpholine] fall in the same range of IC50: 0.01 to 0.1 µM for the first, 0.01 to 0.1 µM for the second.

`CC(C)(C)OC(=O)N1CC(COc2nc(N3CCOCC3)nc3c2CCN3c2cccnc2)C1` [Compound 37, tert-butyl 3-(((2-morpholino-7-(pyridin-3-yl)-6,7-dihydro-5H-pyrrolo[2,3-d]pyrimidin-4-yl)oxy)methyl)azetidine-1-carboxylate] and `CC(C)(C)OC(=O)N1CCC(COc2nc(N3CCOCC3)nc3c2CCN3c2cccnc2)C1` (centres unmarked) [Compound 33, tert-butyl 3-(((2-morpholino-7-(pyridin-3-yl)-6,7-dihydro-4H-pyrrolo[2,3-d]pyrimidin-4-yl)oxy)methyl)pyrrolidine-1-carboxylate] fall in the same range of IC50: 0.1 to 1 µM for the first, 0.1 to 1 µM for the second.

`c1ccc(N2CCc3c(-c4cnco4)nc(N4CCOCC4)nc32)cc1` [Compound 101, 4-(4-(oxazol-5-yl)-7-phenyl-6,7-dihydro-5H-pyrrolo[2,3-d]pyrimidin-2-yl)morpholine] and `c1ccc(N2CCc3c(Oc4ccccn4)nc(N4CCOCC4)nc32)cc1` [Compound 49, 4-(7-phenyl-4-(pyridin-2-yloxy)-6,7-dihydro-5H-pyrrolo[2,3-d]pyrimidin-2-yl)morpholine] fall in the same range of IC50: 0.01 to 0.1 µM for the first, 0.01 to 0.1 µM for the second.

`c1ccc(N2CCc3c(COC4CCOCC4)nc(N4CCOCC4)nc32)cc1` [Compound 61, 4-(7-phenyl-4-(((tetrahydro-2H-pyran-4-yl)oxy)methyl)-6,7-dihydro-5H-pyrrolo[2,3-d]pyrimidin-2-yl)morpholine] and `c1ccc(N2CCc3cnc(N4CCOCC4)nc32)cc1` [Compound 2, 4-(7-phenyl-6,7-dihydro-5H-pyrrolo[2,3-d]pyrimidin-2-yl)morpholine] fall in the same range of IC50: 0.1 to 1 µM for the first, 0.1 to 1 µM for the second.

Work on `COc1cccc(-c2nccc(-c3nc(N4CCOCC4)nc4c3CCN4c3cccnc3)n2)c1` [Compound 123, 4-(4-(2-(3-methoxyphenyl)pyrimidin-4-yl)-7-(pyridin-3-yl)-6,7-dihydro-5H-pyrrolo[2,3-d]pyrimidin-2-yl)morpholine] yielded an IC50 of 0.1 to 1 µM.

same assay, conditions: values plotted in FIG. 7; read-out: PIKFYVE Biochemistry (IC50)

Compound `Fc1cccc(-c2ccnn2-c2nc(N3CCOCC3)c3ncccc3n2)c1` has an IC50 of over 10 µM.

tested on: PIKFYVE TDP-43 yeast strain; experiment: Propidium iodide viability assay, PIKFYVE TDP-43 yeast strain; assay type: cell-based; conditions: 0.23 μM, FIG. 6
Excerpt: as §1, §2, §3
Biochemical and Efficacy Assays. […]

For `Cc1cccc(/C=N/Nc2cc(N3CCOCC3)n3nc(-c4ccncc4)cc3n2)c1` [APY0201, reference compound], the “propidium iodide-positive dead cells in PIKFYVE TDP-43” value was “reduced the population of propidium iodide-positive dead cells”.

same assay, conditions: PIKFYVE TDP-43 model

For `Cc1cccc(/C=N/Nc2cc(N3CCOCC3)n3nc(-c4ccncc4)cc3n2)c1` [APY0201, reference compound], the “concentrations affording increased viability in PIKFYVE TDP-43” value was “Concentrations ranging from 0.5 mM to less than 100 nM afforded increased viability”.

same assay, conditions: PIKFYVE TDP-43 yeast model

In the case of `Cc1cccc(/C=N/Nc2cc(N3CC4CC3CO4)n3nc(-c4ccncc4)cc3n2)c1` (centres unmarked), the “PIKfyve TDP-43 (active/inactive)” value is reported as “Active”.
In the case of `N#Cc1cc(N2CCOCC2)n2nc(-c3ccncc3)cc2n1`, the “PIKfyve TDP-43 (active/inactive)” value is reported as “Inactive”.
In the case of `Cn1c(-c2ccncc2)nc2c(N3CCOCC3)ncnc21`, the “PIKfyve TDP-43 (active/inactive)” value is reported as “Inactive”.

same assay, conditions: Saccharomyces cerevisiae; PIKFYVE TDP-43 yeast strain, reduction in PI-positive cells, highest concentration 15 μM; read-out: BIKFYVE TDP-43 (IC50)

Compared with `Oc1cc(-c2ccccc2)nn1-c1cc(N2CCOCC2)n2nc(-c3ccncc3)nc2n1`, `c1ccc(-c2cccc(-c3cc(N4CCOCC4)n4nc(-c5ccncc5)cc4n3)n2)cc1` is 3-fold lower in IC50: 0.693 µM for the first, 0.23 µM for the second. The second is the more potent here.

Going from `Cc1cccc(/C=N/Nc2cc(N3CCOCC3)nc(OCCc3ccc(CN)cc3)n2)c1` to `Cc1cccc(/C=N/Nc2nc(N3CCOCC3)c3ncccc3n2)c1`, the IC50 rises from 1.12 µM to 8.21 µM (7.3-fold). The first is the more potent here.

Compared with `c1ccc(N2CCc3c(OCc4cccnc4)nc(N4CCOCC4)nc32)cc1` [drawing 539], `c1ccc(-c2ccnc(-c3cc(N4CCOCC4)nc(OCc4ccncc4)n3)n2)cc1` is 1.9-fold lower in IC50: 2.69 µM for the first, 1.45 µM for the second. The second is the more potent here.

Going from `Oc1cc(C2CCOCC2)nn1-c1cc(N2CCOCC2)n2nc(-c3ccncc3)cc2n1` to `Cc1cccc(/C=N/Nc2nc(N3CCOCC3)c3nc(-c4ccncc4)n(C)c3n2)c1`, the IC50 falls from 9.11 µM to 4.72 µM (1.9-fold). The second is the more potent here.

For `Fc1cccc(-c2ccnn2-c2nc(N3CCOCC3)c3ncccc3n2)c1`, the IC50 was 5.75 µM.
